From publication PMC8778818, “Synthesis, Structural Characterization and Anticancer Activity of New 5-Trifluoromethyl-2-thioxo-thiazolo[4,5-d]pyrimidine Derivatives” (Pharmaceuticals, 2022)

Experiments:
OVCAR-3 = assay: NCI-60 screen, Ovarian Cancer OVCAR-3; type: cell-based, human; conditions: OVCAR-3, 10^−5 M one dose
A549/ATCC = assay: NCI-60 screen, Non-Small Cell Lung Cancer A549/ATCC; type: cell-based, human; conditions: 10^−5 M one dose
SK-OV-3 = assay: NCI-60 screen, Ovarian Cancer SK-OV-3; type: cell-based, human; conditions: SK-OV-3, 10^−5 M one dose
MDA-MB-468 = assay: NCI-60 screen, Breast Cancer MDA-MB-468; type: cell-based, human; conditions: MDA-MB-468, 10^−5 M one dose
Protocol: The search for the cytotoxic activity of new derivatives usually starts with in vitro cell-based screening. Four compounds 2b (NSC D-745983/1), 3b (NSC D-766111/1), 4b (NSC D-785591/1) and 4c (NSC D-771706/1), selected by the National Cancer Institute were tested in the anticancer screen for a panel of approximately 60 human disease-oriented tumor cell lines, organized into subpanels derived from nine human cancer types—leukemia, melanoma, and cancers of the lung, colon, brain, breast, ovary, prostate, and kidney. They were initially tested at only one concentration of 10 µM (10^−5 M) for each cell line, which were inoculated and preincubated on a microtiter plate for […]. The results of the one-dose anticancer assay for the tested new compounds are reported as the percentage of the treated cell growth in comparison with untreated no-drug control. This allows for detection of the growth inhibition—values 0–100 and cytotoxicity; negative numbers mean cell death.
Antitumor activity in five dose testing (10^−4−10^−8 M) is expressed by three different dose–response parameters for each of the 60 human tumor cell lines. The GI50 value (molar concentration causing a half-growth inhibition), TGI (molar concentration required for total growth inhibition), which signifies the cytostatic effect, and LC50 (molar concentration of the compound required for 50% cell death). LC50 signifies the cytotoxic effect. […] Nevertheless, the selectivity for GI50 can be seen for several cell lines within subpanel leukemia (SR, log GI50 −6.36) and non-small cell lung cancer (NCI-H522, log GI50 −6.69).
The antitumor screening (NCI-60) was performed at the National Cancer Institute, Bethesda, USA. A total panel of approximately 60 human tumor cell lines derived from nine different cancer types (leukemia, non-small cell lung, colon, brain, melanoma, ovarian, renal, prostate and breast) formed the basis of this in vitro test. The origins and processing of the cell lines used in the study were described previously. First, the compounds were evaluated in a primary anticancer assay at 10^−5 M. Results for each tested compound are reported as the percent of growth of the treated cells. […] The human tumor cell lines of the cancer screening panel were grown in an RMPI 1640 medium containing 5% fetal bovine serum and 2 mM of L-glutamine. Each cell line was inoculated and preincubated at 37 °C, 5% CO2, 95% air and 100% relative humidity for 24 h, before the addition of the test compound into 96-well microtiter plates in 100 µL at plating densities ranging from 5000 to 40,000 cells/well. The density of inoculum depends on the type of tumor cell and its growth characteristics. The screened compounds were solubilized in dimethyl sulfoxide at 400-fold the desired final concentration and stored frozen. At the time of the test agents’ addition, an aliquot of frozen concentrate was thawed and diluted to twice the desired final concentration with complete medium containing 50 µg/mL gentamicin. Next, the test compounds were evaluated at the four additional 10-fold dilutions to reach the final concentrations plus control. Aliquots of 100 µL of the different dilutions (100, 10, 1, […] µM/mL) of the tested compounds were added to microtiter wells, and the culture was incubated for 48 h under the same conditions. Cell were fixed in situ by the addition of 50 µL of cold 50% trichloroacetic acid and incubated for 60 min at 4 °C. The supernatant was discarded; plates were washed five times with water and air-dried. Sulforhodamine B at 0.4% in 1% acetic acid, 100 µL, was added to each well, then plates were incubated for 10 min at room temperature. Unbound dye was removed by washing five times with 1% acetic acid and air dried. The protein-bound stain was solubilized with a […] trizma base and the absorbance was read on an automated plate reader. A wavelength of 515 nm was used to read optical densities. […]

SK-MEL-5 = assay: NCI-60 screen, Melanoma SK-MEL-5; type: cell-based, human; conditions: SK-MEL-5, 10^−5 M one dose
M14 = conditions: M14, 10^−5 M one dose
RXF 393 = assay: NCI-60 screen, Renal Cancer RXF 393; type: cell-based, human; conditions: RXF 393, 10^−5 M one dose
COLO-205 = assay: NCI-60 screen, Colon Cancer COLO-205; type: cell-based, human; conditions: COLO-205, 10^−5 M one dose
SK-MEL-2 = assay: NCI-60 screen, Melanoma SK-MEL-2; type: cell-based, human; conditions: SK-MEL-2, 10^−5 M one dose
SK-MEL-28 = assay: NCI-60 screen, Melanoma SK-MEL-28; type: cell-based; conditions: SK-MEL-28, 10^−5 M one dose
MCF7 = assay: NCI-60 screen, Breast Cancer MCF7; type: cell-based, human; conditions: MCF7, 10^−5 M one dose
HOP-62 = assay: NCI-60 screen, Non-Small Cell Lung Cancer HOP-62; type: cell-based; conditions: HOP-62, 10^−5 M one dose
UO-31 = assay: NCI-60 screen, Renal Cancer UO-31; type: cell-based; conditions: UO-31, 10^−5 M one dose
MALME-3M = assay: NCI-60 screen, Melanoma MALME-3M; type: cell-based, human; conditions: 10^−5 M one dose
KM12 = assay: NCI-60 screen, Colon Cancer KM12; type: cell-based, human; conditions: KM12, 10^−5 M one dose
MDA-MB-231/ATCC = assay: NCI-60 screen, Breast Cancer MDA-MB-231/ATCC; type: cell-based; conditions: MDA-MB-231/ATCC, 10^−5 M one dose

| SMILES | Growth of Cells (%) (OVCAR-3) | Growth of Cells (%) (A549/ATCC) | Growth of Cells (%) (SK-OV-3) | Growth of Cells (%) (MDA-MB-468) | Growth of Cells (%) (SK-MEL-5) | Growth of Cells (%) (M14) | Growth of Cells (%) (RXF 393) | Growth of Cells (%) (COLO-205) | Growth of Cells (%) (SK-MEL-2) | Growth of Cells (%) (SK-MEL-28) | Growth of Cells (%) (MCF7) | Growth of Cells (%) (HOP-62) | Growth of Cells (%) (UO-31) | Growth of Cells (%) (MALME-3M) | Growth of Cells (%) (KM12) | Growth of Cells (%) (MDA-MB-231/ATCC) |
| --- | --- | --- | --- | --- | --- | --- | --- | --- | --- | --- | --- | --- | --- | --- | --- | --- |
| CCNc1nc(C(F)(F)F)nc2c1sc(=S)n2-c1ccccc1 [Compound 4b, 7-(ethylamino)-3-phenyl-5-(trifluoromethyl)[1, 3]thiazolo[4,5-d]pyrimidine-2(3H)-thione] | 106.99 | 74.36 | 101.70 | 81.60 | 87.63 | 107.61 | 100.09 | 105.73 | 88.08 | 112.46 | 96.38 | 86.06 | 103.75 | 144.23 | 89.17 | 85.06 |
| O=c1[nH]c(C(F)(F)F)nc2c1sc(=S)n2-c1ccccc1 [Compound 2b, 3-phenyl-2-thioxo-5-(trifluoromethyl)-2,3-dihydro[1, 3]thiazolo[4,5-d]pyrimidin-7(6H)-one] | 110.35 | 103.88 | 108.53 | 91.37 |  | 112.91 | 95.34 | 114.26 | 97.36 | 102.86 | 111.19 |  | 91.22 | 121.70 | 100.96 | 107.13 |
